Key:
[1] = system: Snake Venom PhosphoDiEsterase, SVPDE (Phosphodiesterase I Type II)
snake phosphodiesterase = assay: Cleavage of oligo 6 by snake phosphodiesterase (Boehringer Mannheim), monitored by CGE; format: in vitro ADME, crotalus durissus; conditions: 0.5 μl enzyme in water (total volume 25 μl)
Procedure: Examples 13-22 describe cleavage of the Oligos 1-7. All cleavage experiments were performed at room temperature. The concentrations of the nucleases were reduced to slow down the rates of cleavage for the homoploymers. See S. Agrawal, in Delivery Strategies for Antisense Oligonucleotide Therapeutics, 275, 462-473, Ed. S. Akhtar, CAC Press, 1995. The Capillary Gel Electrophoresis equipment used for the studies were the Beckmman PAC/E 2200 system with Beckman Coulter E-CAP DNA capillary (#477477, […], 65 cm [27 cm effective length] loaded with Beckman Coulter E-CAP ssDNA 100-R gel and run using the Tris-Borate-Urea buffer prepared according to Beckman procedures. The CGE running conditions were as follows. The injection was done for 2 seconds at 10 kV followed by electro-osmotic flow with buffer for 30-60 min as needed at 10 kV. The cleavage reactions were monitored in most cases after 1, 2, 4, 5, 7, 10, 12, 15, 17 and 20 hrs. Some reactions were monitored after 5, 10 minutes and others after 72 and 100 hrs. The SVPDE is obtained from two different species of snakes, crotalus adamanteus and crotalus durissus. It has been observed that there is no variation in the cleavage experiments as a result of this change. […]

**Q.** With “([cytarabine-pO]3-[2′O-methylcytidine-pO]2)3 [Oligo 2]” as the substance, how does the “full length oligo cleaved (estimated)” value [1] read?
**A.** Its value is “more than 50%”.

**Q.** And the “ratio of 2′O-MeCMP to dCMP reached as the cleavage progressed” value [1]?
**A.** Its value is 5.

**Q.** And the “ratio of araCMP to dCMP reached as the cleavage progressed” value [1]?
**A.** Its value is 6.

**Q.** (cytarabine-pO)15-dC [Oligo 1] was tested. Which “cleavage/degradation observed by CGE” value [1] did it give?
**A.** The value was “minor cleavage”.

**Q.** What about the “oligonucleotide degraded to monomers” value [1] of the same substance?
**A.** The value was roughly 20%.

**Q.** And the “oligonucleotide degraded to oligomers of smaller lengths” value [1]?
**A.** The value was roughly 50%.

**Q.** And the “ratio of araCMP to dCMP reached as the cleavage progressed” value [1]?
**A.** The value was 13.

**Q.** What about the “ratio of araCMP to dCMP, starting value as the cleavage progressed” value [1] of the same substance?
**A.** The value was 3.

**Q.** With “[2′O-methylcytarabine-pO] 15-dC [Oligo 5]” as the substance, how does the oligonucleotide degraded [1] read?
**A.** The oligonucleotide degraded was “more than 80%”.

**Q.** For “[dC-pO] 14-dC-OH [Oligo 6, reference compound]”, which “cleavage/degradation observed by CGE” value (snake phosphodiesterase; after 30 minutes) is on record?
**A.** The value was “a series of shorter oligomers due to partial cleavage was observed”.

**Q.** What about the “cleavage/degradation observed by CGE” value (snake phosphodiesterase; after 2 hours) of the same substance?
**A.** Its value is “no full length oligonucleotide was observed”.

**Q.** What about the digestion [1] of the same substance?
**A.** Its digestion is “more than 90%”.

**Q.** Which digestion [1] does the source give for “polycylidilic acid [Oligo 7, reference compound]” here?
**A.** The digestion was “more than 90%”.
